This note sets out measurements from patent US20030004172A1, “Fused pyrimidinone matrix metalloproteinase inhibitors” (priority 2001, published 2003).

SMILES strings stand for the structures. Some results are limits rather than exact numbers.

This test has as its target MMP-13CD (catalytic domain of collagenase-3) (Homo sapiens, UniProt P45452). The experiment in a line: Thiopeptolide substrate hydrolysis inhibition assay, MMP-13CD. The format is biochemical. The settings on record: Table I; thiopeptolide substrate, HEPES pH 7.0, 22° C.; read-out: MMP-13CD IC50. The text has this:
Thiopeptolide substrates show virtually no decomposition or hydrolysis at or below neutral pH in the absence of a matrix metalloproteinase enzyme.

Usually IC50 stands for the concentration needed to halve the response being measured. Regarding `COc1ccccc1CNC(=O)c1cc2c(=O)n(Cc3ccccc3)c(=O)n(C)c2s1` [Example 336, 3-Benzyl-1-methyl-2,4-dioxo-1,2,3,4-tetrahydro-thieno[2,3-d]pyrimidine-6-carboxylic acid 2-methoxy-benzylamide], the IC50 was determined as 30000 nM.
With `Cn1c(=O)n(Cc2ccc(C(=O)O)cc2)c(=O)c2cc(C(=O)NCc3ccc(Br)cc3)sc21` [Example 55, 4-[6-(4-Bromo-benzylcarbamoyl)-1-methyl-2,4-dioxo-1,4-dihydro-2H-thieno[2,3-d]pyrimidin-3-ylmethyl]-benzoic acid], the half-inhibitory concentration (IC50) amounted to 11 nM.
As for `Cn1c(=O)n(Cc2ccccc2)c(=O)c2cc(C(=O)OCC3CCCN3)sc21` (stereo not shown) [Example 199, 3-Benzyl-1-methyl-2,4-dioxo-1,2,3,4-tetrahydro-thieno[2,3-d]pyrimidine-6-carboxylic acid pyrrolidin-2-ylmethyl ester], the figure is 17000 nM; as for `COc1ccc(Br)cc1COC(=O)c1cc2c(=O)n(Cc3ccccc3)c(=O)n(C)c2s1` [Example 196, 3-Benzyl-1-methyl-2,4-dioxo-1,2,3,4-tetrahydro-thieno[2,3-d]pyrimidine-6-carboxylic acid 5-bromo-2-methoxy-benzyl ester], 30000 nM; as for `C=CCCCCn1c(=O)c2cc(C(=O)OCc3ccccc3)sc2n(C)c1=O` [Example 124, 3-Hex-5-enyl-1-methyl-2,4-dioxo-1,2,3,4-tetrahydro-thieno[2,3-d]pyrimidine-6-carboxylic acid benzyl ester], 110 nM.
The figure for `COC(=O)c1ccc(Cn2c(=O)c3cc(C(=O)NCc4ccc(OC)cc4)sc3n(C)c2=O)cc1C` [Example 238, 4-[6-(4-Methoxy-benzylcarbamoyl)-1-methyl-2,4-dioxo-1,4-dihydro-2H-thieno[2,3-d]pyrimidin-3-ylmethyl]-2-methyl-benzoic acid methyl ester] is 55.5 nM.
For the compound `Cc1ccccc1CNC(=O)c1cc2c(=O)n(Cc3ccccc3)c(=O)n(C)c2s1` [Example 337, 3-Benzyl-1-methyl-2,4-dioxo-1,2,3,4-tetrahydro-thieno[2,3-d]pyrimidine-6-carboxylic acid 2-methyl-benzylamide], the IC50 is more than 100000 nM.
Take `Cn1c(=O)n(Cc2ccccc2)c(=O)c2cc(C(=O)NCCc3ccccc3)sc21` [Example 214, 3-Benzyl-1-methyl-2,4-dioxo-1,2,3,4-tetrahydro-thieno[2,3-d]pyrimidine-6-carboxylic acid phenethyl-amide]: the IC50 is 20000 nM.
The figure for `Cc1ccc(Cn2c(=O)c3cc(C(=O)OCc4ccccc4)sc3n(C)c2=O)cc1` [Example 103, 1-Methyl-3-(4-methyl-benzyl)-2,4-dioxo-1,2,3,4-tetrahydro-thieno[2,3-d]pyrimidine-6-carboxylic acid benzyl ester] is 30 nM; for `COc1cccc(CNC(=O)c2cc3c(=O)n(CCN)c(=O)n(C)c3s2)c1` [Example 252, 3-(2-Aminoethyl)-1-methyl-2,4-dioxo-1,2,3,4-tetrahydro-thieno[2,3-d]pyrimidine-6-carboxylic acid 3-methoxy-benzylamide] it is 24000 nM.
As for `COC(=O)C1(c2ccc(Cn3c(=O)c4cc(C(=O)NCc5cccc(OC)c5)sc4n(C)c3=O)cc2)CC1` [Example 92, 1-{4-[6-(3-Methoxy-benzylcarbamoyl)-1-methyl-2,4-dioxo-1,4-dihydro-2H-thieno[2,3-d]pyrimidin-3-ylmethyl]-phenyl}-cyclopropanecarboxylic acid methyl ester], the figure is 10.9 nM.
For `COc1cccc(CNC(=O)c2cc3c(=O)n(CCS(=O)(=O)c4ccc(C)cc4)c(=O)n(C)c3s2)c1` [Example 293], the IC50 was more than 100000 nM.
As for `COc1cccc(CNC(=O)c2cc3c(=O)n(CC4CCC(C(=O)O)CC4)c(=O)n(C)c3s2)c1` (stereo not shown) [Example 90, 4-[6-(3-Methoxy-benzylcarbamoyl)-1-methyl-2,4-dioxo-1,4-dihydro-2H-thieno[2,3-d]pyrimidin-3-ylmethyl]-cyclohexanecarboxylic acid], the figure is 5.43 nM; as for `COc1ccc(CNC(=O)c2cc3c(=O)n(Cc4ccccc4)c(=O)n(C)c3s2)c(OC)c1` [Example 356, 3-Benzyl-1-methyl-2,4-dioxo-1,2,3,4-tetrahydro-thieno[2,3-d]pyrimidine-6-carboxylic acid 2,4-dimethoxy-benzylamide], 10000 nM; as for `Cn1c(=O)n(CCCCOc2ccccc2)c(=O)c2cc(C(=O)OCc3ccccc3)sc21` [Example 121, 1-Methyl-2,4-dioxo-3-(4-phenoxy-butyl)-1,2,3,4-tetrahydro-thieno[2,3-d]pyrimidine-6-carboxylic acid benzyl ester], 250 nM.
As for `COc1ccc(CNC(=O)c2cc3c(=O)n(CC#N)c(=O)n(C)c3s2)cc1` [Example 365, 3-Cyanomethyl-1-methyl-2,4-dioxo-1,2,3,4-tetrahydro-thieno[2,3-d]pyrimidine-6-carboxylic acid 4-methoxy-benzylamide], the IC50 is 1550 nM.
The figure for `Cn1c(=O)n(Cc2ccccc2C(F)(F)F)c(=O)c2cc(C(=O)OCc3ccccc3)sc21` [Example 139, 1-Methyl-2,4-dioxo-3-(2-trifluoromethyl-benzyl)-1,2,3,4-tetrahydro-thieno[2,3-d]pyrimidine-6-carboxylic acid benzyl ester] is 250 nM; for `CCC#CCn1c(=O)c2cc(C(=O)NCc3ccc(OC)cc3)sc2n(C)c1=O` [Example 265] it is 38 nM; for `CC(C)CCOC(=O)c1cc2c(=O)n(Cc3ccccc3)c(=O)n(C)c2s1` [Example 184, 3-Benzyl-1-methyl-2,4-dioxo-1,2,3,4-tetrahydro-thieno[2,2-d]pyrimidine-6-caboxylic acid 3-methyl-butyl ester] it is more than 100000 nM.
The figure for `Cn1c(=O)n(Cc2cccc(Cl)c2)c(=O)c2cc(C(=O)OCc3ccccc3)sc21` [Example 140] is 17 nM; for `COc1ccc(CNC(=O)c2cc3c(=O)n(CCOc4ccc(Br)cc4)c(=O)n(C)c3s2)cc1` [Example 273] it is 59 nM.
For `Cn1c(=O)n(CCN2C(=O)c3ccccc3C2=O)c(=O)c2cc(C(=O)OCc3ccccc3)sc21` [Example 113, 3-[2-(1,3-Dioxo-1,3-dihydro-isoindol-2-yl)-ethyl]-1-methyl-2,4-dioxo-1,2,3,4-tetrahydro-thieno[2,3-d]pyrimidine-6-carboxylic acid benzyl ester], the 50% inhibitory concentration (IC50) was 2900 nM.
As for `COC(=O)c1ccc(Cn2c(=O)c3cc(C(=O)NCc4cccc(OC)c4)sc3n(C)c2=O)cc1` [Example 84, 4-[6-(3-Methoxy-benzylcarbamoyl)-1-methyl-2,4-dioxo-1,4-dihydro-2H-thieno[2,3-d]pyrimidin-3-ylmethyl]-benzoic acid methyl ester], the figure is 20.5 nM; as for `COc1cccc(CNC(=O)c2cc3c(=O)n(Cc4ccc(S(=O)(=O)NC5CC5)cc4)c(=O)n(C)c3s2)c1` [Example 367, 3-(4-Cyclopropylsulfamoyl-benzyl)-1-methyl-2,4-dioxo-1,2,3,4-tetrahydro-thieno[2,3-d]pyrimidine-6-carboxylic acid 3-methoxy-benzylamide], 8.25 nM.
The figure for `Cn1c(=O)n(CCOc2ccccc2)c(=O)c2cc(C(=O)OCc3ccccc3)sc21` [Example 132, 1-Methyl-2,4-dioxo-3-(2-phenoxy-ethyl)-1,2,3,4-tetrahydro-thieno[2,3-d]pyrimidine-6-carboxylic acid benzyl ester] is 74 nM.
